For test [1], the system named is A/Udorn/72 (H3N2) virus. The test can be described thus: Plaque assay in MDCK cells: EC50 by reduction of plaque number. The class given is cell-based, influenza virus. Particulars: MDCK.
For test [2], the system named is pseudoHIV particles. The test can be described thus: HIV pseudovirus assay in X4 cells (luciferase). The test is classed as cell-based, HIV-1. The following applies: Human immunodeficiency virus 1, read-out: HIV EC50. On the procedure: A plasmid coding the HIV-1 genome, deleting the envelope protein gene and with a luciferase gene inserted, and a plasmid coding the envelope protein gene were cotransfected into 293T cells. After 48 hr, the supernatant containing pseudoHlV particles was collected for transducing assay. In 96 well plates, X4 cells were plated and incubated till confluent. The pseudoHlV particles were incubated with various concentrations of inhibitor compounds for one hour in room temperature. The particles were then used for tranducing X4 cells. The transduced X4 cells were lysed after 48 hr and the luciferase activity was measured in a luminometer.

Regarding `CCOC(=O)COc1cc(-c2ccc(/C=C3\SC(=S)N(C4C5CC6CC(C5)CC4C6)C3=O)o2)cc(OC)c1OC` (centres unmarked) [Compound 30], the EC50 in test [1] and in test [2] was under 100 nM in each case.

For the compound `COc1cc(OC)cc(-c2cc(CCCOC(=O)[C@H](CC(N)=O)NC(=O)OC(C)(C)C)c(/C=C3\SC(=S)N(C4CC5CCC4C5)C3=O)o2)c1` (some centres unmarked) [Compound 138], the EC50 in test [1] and in test [2] was under 100 nM each time.

As for `COc1cc(OC)cc(-c2cc(CCCOC(=O)[C@@H](N)Cc3ccc(O)cc3)c(/C=C3\SC(=S)N(C4CC5CCC4C5)C3=O)o2)c1` (some centres unmarked) [Compound 151], the EC50 in test [1] and in test [2] was under 100 nM throughout.

As to `COc1ccc(-c2ccc(/C=C3\SC(=S)N(C4CC5CCC4C5)C3=O)o2)cc1C(=O)N[C@@H](Cc1ccc(O)cc1)C(=O)O` (some centres unmarked) [Compound 86], the EC50 in test [1] and in test [2] was under 100 nM throughout.

Turning to `COc1cc(OC)cc(-c2cc(CCCN)c(/C=C3\SC(=S)N(C4C5CC6CC(C5)CC4C6)C3=O)o2)c1` (centres unmarked) [Compound 121], the EC50 in test [1] and in test [2] was under 100 nM each time.

For the compound `COC(=O)c1cc(-c2ccc(/C=C3\SC(=S)N(C4C5CC6CC(C5)CC4C6)C3=O)o2)cc(OC)c1OC` (centres unmarked) [Compound 32], the EC50 in test [1] and in test [2] was under 100 nM each time.

Turning to `COc1cc(O)cc(-c2cc(CCCC(C(=O)O)C(=O)O)c(/C=C3\SC(=S)N(C4CC5CCC4C5)C3=O)o2)c1` (centres unmarked) [Compound 137], in test [2], the EC50 is under 100 nM.

With `O=C1/C(=C/c2oc(-c3ccccc3)cc2CO)SC(=S)N1C1C2CC3CC(C2)CC1C3` (centres unmarked) [Compound 92], the EC50 is under 100 nM in test [1] and 100 to 250 nM in test [2].

As to `NCCCc1cc(-c2ccc(Cl)cc2)oc1/C=C1\SC(=S)N(C2C3CC4CC(C3)CC2C4)C1=O` (centres unmarked) [Compound 125], the EC50 in test [1] and in test [2] was under 100 nM each time.

Consider `COC(=O)c1cc(-c2ccc(/C=C3\SC(=S)N(C4CC5CCC4C5)C3=O)o2)cc(OC)c1OC` (centres unmarked) [Compound 31], for which the half-maximal effective concentration (EC50) in test [1] and in test [2] was under 100 nM in each case.

For `COc1cc(OC)cc(-c2cc(CCCn3nnc(CO)c3CO)c(/C=C3\SC(=S)N(C4C5CC6CC(C5)CC4C6)C3=O)o2)c1` (centres unmarked) [Compound 201, (Z)-3-(adamantan-2-yl)-5-((3-(3-(4′,5′-bis(hydroxymethyl)-1H-1′,2′,3′-triazol-1-yl)propyl)-5-(3′,5′-dimetho-xyphenyl)furan-2-yl)methylene)-2-thioxothiazolidin-4-one], the EC50 in test [1] and in test [2] was under 100 nM each time.

On to `COc1cc(OC)cc(-c2cc(CCCN)c(/C=C3\SC(=S)N(C4CC5CCC4C5)C3=O)o2)c1` (centres unmarked) [Compound 120], for which the EC50 in test [1] and in test [2] was under 100 nM throughout.

Consider `COc1cc(OC)cc(-c2cc(CCCCO)c(/C=C3\SC(=S)N(C4CC5CCC4C5)C3=O)o2)c1` (centres unmarked) [Compound 113], for which the EC50 in test [1] and in test [2] was under 100 nM throughout.

As to `COc1cc(OCC(=O)N2CCC[C@H]2C(=O)O)cc(-c2ccc(/C=C3\SC(=S)N(C4CC5CCC4C5)C3=O)o2)c1` (some centres unmarked) [Compound 84], the EC50 in test [1] and in test [2] was under 100 nM throughout.

Turning to `COc1ccc(-c2ccc(/C=C3\SC(=S)N(C4C5CC6CC(C5)CC4C6)C3=O)o2)cc1O` (centres unmarked) [Compound 23], the EC50 in test [1] and in test [2] was under 100 nM throughout.

With `COc1cc(O)cc(-c2ccc(/C=C3\SC(=S)N(C4CC5CCC4C5)C3=O)o2)c1` (centres unmarked) [Compound 17], the EC50 in test [1] and in test [2] was under 100 nM each time.

In the case of `COc1cc(OC)cc(-c2cc(CCCNC(=O)[C@H](CC(N)=O)NC(=O)OC(C)(C)C)c(/C=C3\SC(=S)N(C4CC5CCC4C5)C3=O)o2)c1` (some centres unmarked) [Compound 156], the EC50 in test [1] and in test [2] was under 100 nM each time.

For the compound `COc1cc(OC)cc(-c2cc(CCCn3nnc(CO)c3CO)c(/C=C3\SC(=S)N(C4CC5CCC4C5)C3=O)o2)c1` (centres unmarked) [Compound 200, (Z)-3-(bicyclo[2.2.1]heptan-2-yl)-5-((3-(3-(4′,5′-bis(hydroxymethyl)-1H-1′,2′,3′-triazol-1-yl)propyl)-5-(3′,5′-dimethoxyphenyl)furan-2-yl)methylene)-2-thioxothiazolidin-4-one], the EC50 in test [1] and in test [2] was under 100 nM throughout.

As for `COc1cc(OC)cc(-c2ccc(/C=C3\SC(=S)N(C4C5CC6CC(C5)CC4C6)C3=O)o2)c1` (centres unmarked) [Compound 20], the EC50 in test [1] and in test [2] was under 100 nM throughout.

Take `COc1cc(OC)cc(-c2cc(CCCN3CCOCC3)c(/C=C3\SC(=S)N(C4CC5CCC4C5)C3=O)o2)c1` (centres unmarked) [Compound 181]: the half-maximal effective concentration (EC50) in test [1] was under 100 nM.

`O=C1/C(=C/c2oc(-c3ccc(F)cc3)cc2CCCN2CCOCC2)SC(=S)N1C1CC2CCC1C2` (centres unmarked) [Compound 180] came in with an EC50 in test [1] of under 100 nM.

The compound `O=C1/C(=C/c2oc(-c3ccc(Cl)cc3)cc2CCCN2CCOCC2)SC(=S)N1C1CC2CCC1C2` (centres unmarked) [Compound 179] had an EC50 in test [1] of under 100 nM.

`O=C1/C(=C/c2ccccc2)SC(=S)N1C1CC2CCC1C2` (centres unmarked) [Compound 207] had an EC50 in test [1] of 250 to 1000 nM.

`COc1ccc(-c2ccc(/C=C3\SC(=S)N(C4C5CC6CC(C5)CC4C6)C3=O)o2)cc1C(=O)O` (centres unmarked) [Compound 34] displayed an EC50 in test [1] of under 100 nM.

For `Nc1ccc(-c2ccc(/C=C3\SC(=S)N(C4CC5CCC4C5)C3=O)o2)cc1` (centres unmarked) [Compound 11], in test [1], the EC50 is under 100 nM.

Turning to `O=C1/C(=C/c2ccc(-c3c(O)c4ccc(OC5CCCCC5)cc4oc3=O)o2)SC(=S)N1C1CC2CCC1C2` (centres unmarked) [Compound 323], the EC50 in test [1] is under 100 nM.

In test [1], `COc1ccc(-c2ccc(/C=C3\SC(=S)N(C4CC5CCC4C5)C3=O)o2)cc1OCC(=O)N[C@@H](CCC(=O)OCc1ccccc1)C(=O)O` (some centres unmarked) [Compound 81] came in with an EC50 of under 100 nM.

In the case of `O=C1/C(=C/c2oc(-c3ccc(C(F)(F)F)cc3)cc2CCCCCO)SC(=S)N1C1CC2CCC1C2` (centres unmarked) [Compound 337], in test [1], the EC50 was under 100 nM.

For the compound `O=C1/C(=C/c2c[nH]c3ccccc23)SC(=S)N1C1CC2CCC1C2` (centres unmarked) [Compound 216, (Z)-5-((1H-indol-3-yl)methylene)-3-(bicyclo[2.2.1]heptan-2-yl)-2-thioxothiazolidin-4-one], the EC50 in test [1] was under 100 nM.

On to `COc1cc(OC)cc(-c2cc(CCCOC(=O)[C@@H](NC(=O)OC(C)(C)C)c3ccccc3)c(/C=C3\SC(=S)N(C4CC5CCC4C5)C3=O)o2)c1` (some centres unmarked) [Compound 146], for which, in test [1], the EC50 was under 100 nM.

Consider `COc1cc(OC)cc(-c2cc(CCCNC(=O)[C@H](Cc3cn(C(c4ccccc4)(c4ccccc4)c4ccccc4)cn3)NC(=O)OCC3c4ccccc4-c4ccccc43)c(/C=C3\SC(=S)N(C4CC5CCC4C5)C3=O)o2)c1` (some centres unmarked) [Compound 161], for which the EC50 in test [1] was under 100 nM.

In turn, `O=C1/C(=C/c2ncc(-c3ccccc3)o2)SC(=S)N1C1CCCCCC1` [Compound 65] displayed an EC50 in test [1] of under 100 nM.

`COC(=O)COc1ccc2c(O)c(-c3ccc(/C=C4\SC(=S)N(C5CC6CCC5C6)C4=O)o3)c(=O)oc2c1` (centres unmarked) [Compound 318] showed an EC50 in test [1] of under 100 nM.

For the compound `COC(=O)c1cc(-c2ccc(/C=C3\SC(=S)N(C4C5CC6CC(C5)CC4C6)C3=O)o2)ccc1OC` (centres unmarked) [Compound 13], the EC50 in test [1] is under 100 nM.

In turn, `COc1cc(OC)cc(-c2cc(CCCn3cc(CO)nn3)c(/C=C3\SC(=S)N(C4C5CC6CC(C5)CC4C6)C3=O)o2)c1` (centres unmarked) [Compound 199, (Z)-3-(adamantan-2-yl)-5-((5-(3′,5′-dimethoxyphenyl)-3-(3-(4′-(hydroxymethyl)-1H-1′,2′,3′-triazol-1-yl)-propyl)furan-2-yl)methylene)-2-thioxothiazolidin-4-one] had an EC50 in test [1] of under 100 nM.

Regarding `CCOC(=O)c1c(F)ccc(-c2ccc(/C=C3\SC(=S)N(C4CCCCCCC4)C3=O)o2)c1F` [Compound 46], the EC50 in test [1] was under 100 nM.

For `NCCCc1cc(-c2ccc(F)cc2)oc1/C=C1\SC(=S)N(C2C3CC4CC(C3)CC2C4)C1=O` (centres unmarked) [Compound 126], the EC50 in test [1] is under 100 nM.

`COc1cccc(-c2cc(CCCCCO)c(/C=C3\SC(=S)N(C4C5CC6CC(C5)CC4C6)C3=O)[nH]2)c1` (centres unmarked) [Compound 237] displayed an EC50 in test [1] of under 100 nM.

For the compound `O=C1/C(=C/c2sc(-c3ccc(Cl)cc3)cc2-c2ccc(Cl)cc2)SC(=S)N1C1C2CC3CC(C2)CC1C3` (centres unmarked) [Compound 275], in test [1], the EC50 is under 100 nM.

`O=C1/C(=C/c2ccc(-c3c(O)c4cc(Cl)ccc4oc3=O)o2)SC(=S)N1C1CC2CCC1C2` (centres unmarked) [Compound 322]: the EC50 in test [1] is under 100 nM.

The compound `COc1cc(OC)cc(-c2cc(CCCCCOC(=O)[C@]3(O)C[C@@H](O)[C@@H](O)[C@H](O)C3)c(/C=C3\SC(=S)N(C4CC5CCC4C5)C3=O)o2)c1` (some centres unmarked) [Compound 356] came in with an EC50 in test [1] of under 100 nM.

As for `COc1cccc(-c2cc(CCCO)c(/C=C3\SC(=S)N(C4CC5CCC4C5)C3=O)o2)c1` (centres unmarked) [Compound 353], the EC50 in test [1] was under 100 nM.

Regarding `O=C1/C(=C/c2oc(-c3ccc(OC(F)(F)F)cc3)cc2CCCCCO)SC(=S)N1C1C2CC3CC(C2)CC1C3` (centres unmarked) [Compound 339], in test [1], the EC50 was under 100 nM.

`O=C1/C(=C/c2oc(-c3ccc(F)cc3)cc2CCCCCCO)SC(=S)N1C1C2CC3CC(C2)CC1C3` (centres unmarked) [Compound 108] yielded an EC50 in test [1] of under 100 nM.

In test [1], `COc1cc(C)c(-c2ccc(/C=C3\SC(=S)N(C4CCCCCCC4)C3=O)o2)cc1C` [Compound 49] gave an EC50 of under 100 nM.

As to `O=C1/C(=C/c2oc(-c3cccc(F)c3)cc2CCCCCO)SC(=S)N1C1CC2CCC1C2` (centres unmarked) [Compound 343], in test [1], the EC50 was under 100 nM.

Consider `COc1ccc(-c2ccc(/C=C3\SC(=S)N(C4CC5CCC4C5)C3=O)o2)cc1OCC(=O)N[C@@H](Cc1ccc(O)cc1)C(=O)O` (some centres unmarked) [Compound 77], for which the EC50 in test [1] was in the range of 100 to 250 nM.

`CCOC(=O)[C@@H]1CCCCN1C(=O)c1cc(-c2ccc(/C=C3\SC(=S)N(C4CC5CCC4C5)C3=O)o2)ccc1OC` (some centres unmarked) [Compound 91]: the EC50 in test [1] was under 100 nM.

Take `O=C1/C(=C/c2oc(-c3ccc(Cl)cc3)cc2CCCCCN2CCNCC2)SC(=S)N1C1CC2CCC1C2` (centres unmarked) [Compound 192]: the EC50 in test [1] was under 100 nM.

For `O=C1/C(=C/c2ccc(-c3ccc(Cl)cc3)o2)SC(=S)N1C1C2CC3CC(C2)CC1C3` (centres unmarked) [Compound 43], the EC50 in test [1] is under 100 nM.

For orientation: EC50 means the midpoint of the concentration-response curve.

These data come from US8933075B2, “Compounds useful as antiviral agents, compositions, and methods of use” (priority 2010, dated 2015).
